In ChEMBL document CHEMBL3885881, “DrugMatrix”:

Organism: Rattus norvegicus
Test: DrugMatrix - Regimen: Daily Repeat
Assay type: toxicity, organism-based, Sprague-Dawley
Design: regimen Daily Repeat, gender Male, age 6-8 weeks
Conditions: in vivo, po, route oral GAVAGE, vehicle .5 % CMC; for ABSOLUTE BASOPHIL / ABSOLUTE EOSINOPHIL / ABSOLUTE LYMPHOCYTE / ABSOLUTE MONOCYTE / ABSOLUTE SEGMENTED NEUTROPHIL / BASOPHIL / EOSINOPHIL / ERYTHROCYTE COUNT / HEMATOCRIT / HEMOGLOBIN / LEUKOCYTE COUNT / LYMPHOCYTE / MEAN CORPUSCULAR HEMOGLOBIN / MEAN CORPUSCULAR HEMOGLOBIN CONCENTRATION / MEAN CORPUSCULAR VOLUME / MONOCYTE / NEUTROPHIL / NUCLEATED RED BLOOD CELLS / PLATELET COUNT: tissue Blood; for ALANINE AMINOTRANSFERASE / ALBUMIN / ALKALINE PHOSPHATASE / ASPARTATE AMINOTRANSFERASE / BLOOD UREA NITROGEN / CARBON DIOXIDE / CHLORIDE / CHOLESTEROL / CREATINE PHOSPHOKINASE / CREATININE / GLUCOSE / LACTATE DEHYDROGENASE / LIPASE / PHOSPHORUS / POTASSIUM / SODIUM / TOTAL BILIRUBIN / TOTAL PROTEIN / URIC ACID: tissue Plasma
[1] = 0 mg/kg, 72 h, dose level Control, time 3 day
[2] = 0 mg/kg, 120 h, dose level Control, time 5 day
[3] = 0.1 mg/kg, 72 h, dose level Low, time 3 day

CCCN1C[C@H](CSC)C[C@@H]2c3cccc4[nH]cc(c34)C[C@H]21 [PERGOLIDE]
ABSOLUTE BASOPHIL [1]: 0 CELLS/uL
ABSOLUTE EOSINOPHIL [1]: 284.5 CELLS/uL
ABSOLUTE LYMPHOCYTE [1]: 11670.5 CELLS/uL
ABSOLUTE MONOCYTE [1]: 420.83 CELLS/uL
ABSOLUTE SEGMENTED NEUTROPHIL [1]: 1024.17 CELLS/uL
BASOPHIL [1]: 0%
EOSINOPHIL [1]: 1.67%
ERYTHROCYTE COUNT [1]: 5.38 x10E6/uL
HEMATOCRIT [1]: 34.05%
HEMOGLOBIN [1]: 12.75 G/DL
LEUKOCYTE COUNT [1]: 13.4 x10E3/uL
LYMPHOCYTE [1]: 88.33%
MEAN CORPUSCULAR HEMOGLOBIN [1]: 23.73 pg
MEAN CORPUSCULAR HEMOGLOBIN CONCENTRATION [1]: 37.43 G/DL
MEAN CORPUSCULAR VOLUME [1]: 63.4 fL
MONOCYTE [1]: 2.83%
NEUTROPHIL [1]: 7.17%
NUCLEATED RED BLOOD CELLS [1]: 0 /100WBC
PLATELET COUNT [1]: 1184.67 x10E3/uL
ALANINE AMINOTRANSFERASE [1]: 45.33 u/L
ALBUMIN [1]: 4.3 G/DL
ALKALINE PHOSPHATASE [1]: 388.83 u/L
ASPARTATE AMINOTRANSFERASE [1]: 84.83 u/L
BLOOD UREA NITROGEN [1]: 15.5 mg/dL
CARBON DIOXIDE [1]: 27 mmol/L
CHLORIDE [1]: 101.8 MEQ/L
CHOLESTEROL [1]: 76.67 mg/dL
CREATINE PHOSPHOKINASE [1]: 301 u/L
CREATININE [1]: 0.21 mg/dL
GLUCOSE [1]: 168.83 mg/dL
LACTATE DEHYDROGENASE [1]: 294.83 u/L
LIPASE [1]: 9.8 u/L
PHOSPHORUS [1]: 13.25 mg/dL
POTASSIUM [1]: 6.41 MEQ/L
SODIUM [1]: 143.72 MEQ/L
TOTAL BILIRUBIN [1]: 0.22 mg/dL
TOTAL PROTEIN [1]: 5.98 G/DL
URIC ACID [1]: 1.5 mg/dL
ABSOLUTE BASOPHIL [2]: 0 CELLS/uL
ABSOLUTE EOSINOPHIL [2]: 190.67 CELLS/uL
ABSOLUTE LYMPHOCYTE [2]: 12549.5 CELLS/uL
ABSOLUTE MONOCYTE [2]: 276 CELLS/uL
ABSOLUTE SEGMENTED NEUTROPHIL [2]: 1067.17 CELLS/uL
BASOPHIL [2]: 0%
EOSINOPHIL [2]: 1.33%
ERYTHROCYTE COUNT [2]: 5.66 x10E6/uL
HEMATOCRIT [2]: 35.92%
HEMOGLOBIN [2]: 13.65 G/DL
LEUKOCYTE COUNT [2]: 14.08 x10E3/uL
LYMPHOCYTE [2]: 89%
MEAN CORPUSCULAR HEMOGLOBIN [2]: 24.12 pg
MEAN CORPUSCULAR HEMOGLOBIN CONCENTRATION [2]: 38.03 G/DL
MEAN CORPUSCULAR VOLUME [2]: 63.47 fL
MONOCYTE [2]: 2%
NEUTROPHIL [2]: 7.67%
NUCLEATED RED BLOOD CELLS [2]: 0.17 /100WBC
PLATELET COUNT [2]: 1251.67 x10E3/uL
ALANINE AMINOTRANSFERASE [2]: 43.33 u/L
ALBUMIN [2]: 4.22 G/DL
ALKALINE PHOSPHATASE [2]: 365.67 u/L
ASPARTATE AMINOTRANSFERASE [2]: 83.67 u/L
BLOOD UREA NITROGEN [2]: 18.17 mg/dL
CARBON DIOXIDE [2]: 28.67 mmol/L
CHLORIDE [2]: 103.5 MEQ/L
CHOLESTEROL [2]: 71.5 mg/dL
CREATINE PHOSPHOKINASE [2]: 284.5 u/L
CREATININE [2]: 0.21 mg/dL
GLUCOSE [2]: 161.67 mg/dL
LACTATE DEHYDROGENASE [2]: 259.67 u/L
LIPASE [2]: 9.5 u/L
PHOSPHORUS [2]: 12.45 mg/dL
POTASSIUM [2]: 6.49 MEQ/L
SODIUM [2]: 144.25 MEQ/L
TOTAL BILIRUBIN [2]: 0.2 mg/dL
TOTAL PROTEIN [2]: 6.1 G/DL
URIC ACID [2]: 1.73 mg/dL
ABSOLUTE BASOPHIL [3]: 0 CELLS/uL
ABSOLUTE EOSINOPHIL [3]: 0 CELLS/uL
ABSOLUTE LYMPHOCYTE [3]: 6272.67 CELLS/uL
ABSOLUTE MONOCYTE [3]: 109.67 CELLS/uL
ABSOLUTE SEGMENTED NEUTROPHIL [3]: 384.33 CELLS/uL
BASOPHIL [3]: 0%
EOSINOPHIL [3]: 0%
ERYTHROCYTE COUNT [3]: 5.33 x10E6/uL
HEMATOCRIT [3]: 33.93%
HEMOGLOBIN [3]: 12.33 G/DL
LEUKOCYTE COUNT [3]: 6.77 x10E3/uL
LYMPHOCYTE [3]: 92.67%
MEAN CORPUSCULAR HEMOGLOBIN [3]: 23.1 pg
MEAN CORPUSCULAR HEMOGLOBIN CONCENTRATION [3]: 36.37 G/DL
MEAN CORPUSCULAR VOLUME [3]: 63.57 fL
MONOCYTE [3]: 1.67%
NEUTROPHIL [3]: 5.67%
NUCLEATED RED BLOOD CELLS [3]: 0 /100WBC
PLATELET COUNT [3]: 1337.33 x10E3/uL
ALANINE AMINOTRANSFERASE [3]: 45.67 u/L
ALBUMIN [3]: 4.4 G/DL
ALKALINE PHOSPHATASE [3]: 479.67 u/L
ASPARTATE AMINOTRANSFERASE [3]: 81.67 u/L
BLOOD UREA NITROGEN [3]: 15.33 mg/dL
CARBON DIOXIDE [3]: 28.67 mmol/L
CHLORIDE [3]: 102 MEQ/L
CHOLESTEROL [3]: 85 mg/dL
CREATINE PHOSPHOKINASE [3]: 214.67 u/L
CREATININE [3]: 0.21 mg/dL
GLUCOSE [3]: 139 mg/dL
LACTATE DEHYDROGENASE [3]: 153.33 u/L
LIPASE [3]: 9 u/L
PHOSPHORUS [3]: 12.77 mg/dL
POTASSIUM [3]: 6.37 MEQ/L
SODIUM [3]: 146.5 MEQ/L
TOTAL BILIRUBIN [3]: 0.23 mg/dL
TOTAL PROTEIN [3]: 6.23 G/DL
URIC ACID [3]: 1.53 mg/dL
